In patent US11207308B2, “Pharmaceutical compositions for combination therapy” (PRILENIA NEUROTHERAPEUTICS LTD., priority 2012, dated 2021):
“And” between values parts separate entries of the source, which are not always exact repeats. Identical values can stand only once. Like-named read-outs stand apart in the source and are kept apart here.

What was measured:
striatal DOPAC [1] = assay: Striatal DOPAC tissue level (HPLC/EC), dose-response in naive rats; assay type: in vivo, rat; details: mean ± SEM, percentage of vehicle control group mean
Experimental: (§1) Rats weighed 160-180 g at the time of arrival.
(§2) The treatment groups consisted of Vehicle (saline; NaCl 0.9% v/w) and ACR16 tested at three doses (11; 33 and 100 μmol/kg).
(§3) KR104: Animals were allocated into five different treatment groups, n=4.
(§4) All compounds were injected s.c. four minutes before start of locomotor activity recording at a volume of 5 ml/kg.
(§5) A digital sonifier (Branson Digital Sonifier 250-D) was used to homogenise tissue from the striatum and limbic region. […] All samples were centrifuged at 10.000 rpm for 10 minutes at +4° C. Cortex tissue was filtered in Munktell filter paper 5.5 cm quality 1 F. Tissue eluates were analysed with respect to tissue concentrations (ng/g tissue) of the monoamine transmitter substances (Norepinephrine (NA), dopamine (DA), 5-hydroxytryptamine (5-HT)) as well as their amine metabolites (normetanephrine (NM), 3-methoxytyramine (3-MT)) and acid metabolites ([…] (DOPAC), 5-hydrocyindoleacetic acid (5-HTAA), homovanillic acid (HVA)) by HPLC separations and electrochemical detection (HPLC/EC). Stock standards (DA, NA, 5-HT, 3-MT, DOPAC, HVA, HIAA, 500 μg/ml) and internal standard (AMDA 500 μg/ml) are prepared once every three months. 5-HT and 5HIAA are dissolved in milliQ water. DA, NA, DOPAC, NM, 3-MT and HVA are dissolved in 0.01 M HCl. 5-HT, 5-HIAA, NM and HVA are kept in fridge; DA, DOPAC, NA and 3-MT are kept in freezer.
(§6) Detection potentials relative to Ag/AgCl reference are 0.45 and 0.60V. […] Detection potentials relative to Ag/AgCl reference are 0.45 and 0.65V.

striatal dopamine [2] = assay: Striatal dopamine (DA) tissue level (HPLC/EC), dose-response in naive rats; assay type: in vivo, rat; details: mean ± SEM, percentage of vehicle control group mean
Experimental: as §1, §2, §3, §4, §5, §6

striatal dopamine [3] = assay: Striatal dopamine (DA) tissue level (HPLC/EC), interaction with Tetrabenazine; details: percentage of Tetrabenazine control group mean
Arc mRNA [4] = assay: Arc gene expression (Arc mRNA, real-time PCR) in striatum and frontal cortex, interaction with Tetrabenazine
Male Sprague-Dawley rats [5] = details: for Locomotor activity, % of Tetrabenazine control mean: full hour of recording
Excerpt: No brain tissue was collected from this experiment. […] Each activity monitor consists of a quadratic metal frame equipped with photobeam sensors. […] Each activity monitor is equipped with three rows of infrared photobeam sensors, each row consisting of 16 sensors. […] Photobeam sensors are spaced 2.5 cm apart. Each activity monitor is fitted in an identical sound and light attenuating box (W×L×H—55×55×45) containing a weak house light and a fan. The computer software is written using object oriented programming (LabVIEW™, National instruments, Austin, Tex., USA). Behavioural data from each activity monitor, representing the position (horizontal center of gravity and vertical activity) of the animal at each time, are recorded at a sampling frequency of 25 Hz and collected using a custom written LABView™ application. The data from each recording session are stored and analyzed with respect to distance travelled. Each behavioural recording session lasts 60 min, starting approximately 4 min after the injection of test compound. The results are presented as counts/60 minutes, counts/45 minutes or counts/15 minutes, in arbitrary length units. Statistical comparisons are carried out using Student's t-test against the control group.

striatal DOPAC [6] = assay: Striatal DOPAC tissue level (HPLC/EC), interaction with Tetrabenazine; details: percentage of Tetrabenazine control group mean
Arc mRNA [7] = assay: Arc gene expression (Arc mRNA, real-time PCR) in striatum and frontal cortex, dose-response studies; assay type: in vivo, rat
Experimental: as §1, §4
Reference genes are HPRT and cyclophilin.
Correct PCR products are confirmed by agarose gel electroforesis (2%) PCR products are purified with PCR purification kit from Qiagen (Valencia, Calif., USA). All genes are sequenced at MWG, Germany.
For the data shown in FIG. 6, the reverse transcription and PCR were performed as follows:
Reversed transcription is performed by using a ThermoScript kit (Invitrogen).
cDNA of Arc and two reference genes, hypoxanthine-guanine phosphoribosyltransferase (HPRT) and cyclophilin A, was amplified by real-time PCR in either a triplex reaction (Tetrabenazine studies) or three singleplex reactions (studies with Pridopidine and haloperidol).

Male Sprague-Dawley rats [8] = assay: Spontaneous locomotor activity, dose-response in drug-naive rats; assay type: in vivo, rat
Experimental: as §1, §2, §3, §4
During measurements of behavioural activity, a rat is put in a transparent acrylic cage with matted black floor (W×L×H, 41×41×30 cm) which in turn is placed in the activity monitor. […] Two rows are placed along the front and the side of the floor of the cage, at a 90 degree angle, and the third row is placed 10 cm above the floor to measure vertical activity. Photobeam sensors are spaced 2.5 cm apart.

[9] = 33 μmol/kg s.c. together with Tetrabenazine 0.64 mg/kg
[10] = 100 μmol/kg s.c. together with Tetrabenazine 0.64 mg/kg
[11] = 33 μmol/kg s.c. coadministered with Tetrabenazine 0.64 mg/kg
[12] = 100 μmol/kg s.c. coadministered with Tetrabenazine 0.64 mg/kg

SMILES: CCCN1CCC(c2cccc(S(C)(=O)=O)c2)CC1 [Pridopidine, 4-(3-Methanesulfonyl-phenyl)-1-propyl-piperidine]
- DOPAC striatum, dose-response in naive rats (striatal DOPAC [1]; 11 μmol/kg s.c.): 117 ± 5 %
- DOPAC striatum, dose-response in naive rats (striatal DOPAC [1]; 33 μmol/kg s.c.): 178 ± 7 %
- DOPAC striatum, dose-response in naive rats (striatal DOPAC [1]; 100 μmol/kg s.c.): 236 ± 17 %
- DA striatum, dose-response in naive rats (striatal dopamine [2]; 11 μmol/kg s.c.): 104 ± 3%
- DA striatum, dose-response in naive rats (striatal dopamine [2]; 33 μmol/kg s.c.): 101 ± 3%
- DA striatum, dose-response in naive rats (striatal dopamine [2]; 100 μmol/kg s.c.): 73 ± 4 %
- DA striatum, interaction with Tetrabenazine (striatal dopamine [3]; [9]): 91 ± 11%
- DA striatum, interaction with Tetrabenazine (striatal dopamine [3]; [10]): 98 ± 8%
- Frontal cortex Arc mRNA, % of the Tetrabenazine control group mean (Arc mRNA [4]; [11]): 125%
- Striatal Arc, % of the Tetrabenazine control group mean (Arc mRNA [4]; [11]): 144%
- Frontal cortex Arc mRNA, % of the Tetrabenazine control group mean (Arc mRNA [4]; [12]): 193%
- Striatal Arc, % of the Tetrabenazine control group mean (Arc mRNA [4]; [12]): 207%
- Locomotor activity, % of Tetrabenazine control mean (Male Sprague-Dawley rats [5]; 33 μmol/kg s.c. combined with Tetrabenazine 0.64 mg/kg): 135%
- Locomotor activity, % of Tetrabenazine control mean (Male Sprague-Dawley rats [5]; 100 μmol/kg s.c. combined with Tetrabenazine 0.64 mg/kg): 137%
- Locomotor activity in Tetrabenazine treated rats, 15-60 min (in words) (Male Sprague-Dawley rats [5]; 15-60 min period, combined with Tetrabenazine 0.64 mg/kg, vs Tetrabenazine control): this reversing effect reached significance for the Pridopidine 100 μmol/kg dose group
- Effect on Tetrabenazine induced locomotor activity reduction (in words) (Male Sprague-Dawley rats [5]; combined with Tetrabenazine 0.64 mg/kg s.c.): reversed the behavioural inhibition induced by Tetrabenazine
- Locomotor activity in Tetrabenazine treated rats, 0-15 min (in words) (Male Sprague-Dawley rats [5]; first 15 min, combined with Tetrabenazine 0.64 mg/kg, vs Tetrabenazine control): this reversing effect reached significance for the Pridopidine 100 μmol/kg dose group
- DOPAC striatum, interaction with Tetrabenazine (striatal DOPAC [6]; [9]): 123 ± 8 ^ %
- DOPAC striatum, interaction with Tetrabenazine (striatal DOPAC [6]; [10]): 155% and 155 ± 4 %
- Arc mRNA in the frontal cortex, % of the vehicle control group mean (Arc mRNA [7]; 33 μmol/kg s.c.): 149%
- Arc mRNA in the striatum, % of the control group mean (Arc mRNA [7]; 33 μmol/kg s.c.): 168%
- Arc mRNA in the frontal cortex, % of the vehicle control group mean (Arc mRNA [7]; 100 μmol/kg s.c.): 222%
- Arc mRNA in the striatum, % of the control group mean (Arc mRNA [7]; 100 μmol/kg s.c.): 253%
- Spontaneous locomotor activity, % of the vehicle control group mean (Male Sprague-Dawley rats [8]; 33 μmol/kg s.c., full hour of recording): 138%
- Spontaneous locomotor activity, period 15-60 minutes post dosing (in words) (Male Sprague-Dawley rats [8]; 15-60 minutes post dosing, vs vehicle control): no significant effects were observed
- Effect on spontaneous locomotor activity (in words) (Male Sprague-Dawley rats [8]; all doses tested, s.c., 60 min recording): no inhibitory effect on spontaneous locomotor activity
- Spontaneous locomotor activity, initial 15 min (in words) (Male Sprague-Dawley rats [8]; initial 15 min of recording, vs vehicle control): a significant increase (P<0.05) was seen for the 11 μmol/kg Pridopidine dose group
